Laboratory results taken from patent US7300946B2, “N-(substituted arylmethyl)-4-(disubstituted methyl) piperidines and pyridines” (Bayer CropScience AG, priority 2002, dated 2007).

System: tobacco budworm (Heliothis virescens [Fabricius])
Assay: surface-treated diet test against the tobacco budworm
Assay type: in vivo
Conditions: tobacco budworm second instar larvae, 0.25 millimoles of candidate insecticide on the surface of the diet, five-day exposure; for Percent Mortality: compared to total number of insects infested; for Percent Growth Inhibition: inhibition of insect weight relative to untreated controls
Summary of the method: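 Wheat germ artificial diet surface-treated with 40 µL of 50 mM DMSO stock diluted 1:7 in 1:1 water/acetone (0.25 millimolar on diet), or sub-multiples for rate tests. One second-instar larva per well, 25° C, 60% RH, 5 days; percent weight inhibition vs DMSO controls and percent mortality.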

Structure (SMILES)	Percent Mortality	Percent Growth Inhibition
O=C(Nc1cc(F)cc(F)c1)OC(c1ccc(Cl)c(Cl)c1)C1CCN(Cc2ccc(Oc3ncccn3)cc2)CC1 (stereo not shown) [Compound 723]	100%	100%
O=C(Nc1cccc(C(F)(F)F)c1)OC(c1ccc(Cl)c(Cl)c1)C1CCN(Cc2ccc(Oc3ncccn3)cc2)CC1 (stereo not shown) [Compound 724]	100%	100%
O=C(Nc1ccc(C(F)(F)F)cc1)OC(c1ccc(Cl)c(Cl)c1)C1CCN(Cc2ccc(Oc3ncccn3)cc2)CC1 (stereo not shown) [Compound 725]	100%	100%
O=C(Nc1ccc(Cl)cc1)OC(c1cc(Cl)cc(Cl)c1)C1CCN(Cc2ccc(Oc3ncccn3)cc2)CC1 (stereo not shown) [Compound 726]	100%	100%
O=C(Nc1cccc(F)c1)OC(c1cc(Cl)cc(Cl)c1)C1CCN(Cc2ccc(Oc3ncccn3)cc2)CC1 (stereo not shown) [Compound 727]	100%	100%
O=C(Nc1cc(F)cc(F)c1)OC(c1cc(Cl)cc(Cl)c1)C1CCN(Cc2ccc(Oc3ncccn3)cc2)CC1 (stereo not shown) [Compound 728]	100%	100%
O=C(Nc1ccc(Cl)cc1)OC(c1ccc(C(F)(F)F)cc1)C1CCN(Cc2ccc(Oc3ncccn3)cc2)CC1 (stereo not shown) [Compound 729]	100%	100%
O=C(Nc1ccc(F)cc1F)OC(c1ccc(C(F)(F)F)cc1)C1CCN(Cc2ccc(Oc3ncccn3)cc2)CC1 (stereo not shown) [Compound 730]	100%	100%
O=C(Nc1cc(F)cc(F)c1)OC(c1ccc(C(F)(F)F)cc1)C1CCN(Cc2ccc(Oc3ncccn3)cc2)CC1 (stereo not shown) [Compound 731]	100%	100%
O=C(Nc1ccc(F)c(F)c1)OC(c1ccc(C(F)(F)F)cc1)C1CCN(Cc2ccc(Oc3ncccn3)cc2)CC1 (stereo not shown) [Compound 732]	100%	100%
O=C(Nc1ccc(Cl)cc1)OC(c1ccc(OC(F)(F)F)cc1)C1CCN(Cc2ccc(Oc3ncccn3)cc2)CC1 (stereo not shown) [Compound 733]	100%	100%
O=C(Nc1cccc(F)c1)OC(c1ccc(OC(F)(F)F)cc1)C1CCN(Cc2ccc(Oc3ncccn3)cc2)CC1 (stereo not shown) [Compound 734]	100%	100%
O=C(Nc1cc(F)cc(F)c1)OC(c1ccc(OC(F)(F)F)cc1)C1CCN(Cc2ccc(Oc3ncccn3)cc2)CC1 (stereo not shown) [Compound 735]	100%	100%
O=C(Nc1cc(F)cc(F)c1)OC(c1ccc(C(F)(F)F)cc1)C1CCN(Cc2ccc(Oc3cccnn3)cc2)CC1 (stereo not shown) [Compound 736]	100%	100%
O=C(Nc1ccc(Cl)cc1)OC(c1ccc(C(F)(F)F)cc1)C1CCN(Cc2ccc(Oc3ccc(Cl)nn3)cc2)CC1 (stereo not shown) [Compound 737]	100%	100%
O=C(Nc1cc(F)cc(F)c1)OC(c1ccc(C(F)(F)F)cc1)C1CCN(Cc2ccc(Oc3ccc(Cl)nn3)cc2)CC1 (stereo not shown) [Compound 738]	100%	100%
O=C(Nc1cc(F)cc(F)c1)OC(c1ccc(C(F)(F)F)cc1)C1CCN(Cc2ccc(Oc3ncncn3)cc2)CC1 (stereo not shown) [Compound 739]	0%	100%
COc1nc(OC)nc(Oc2ccc(CN3CCC(C(OC(=O)Nc4cc(F)cc(F)c4)c4ccc(C(F)(F)F)cc4)CC3)cc2)n1 (stereo not shown) [Compound 740]	100%	100%
CCCOc1ccc(C[N+]2([O-])CCC(C(OC(=O)Nc3cc(F)cc(F)c3)c3ccc(C(F)(F)F)cc3)CC2)cc1 (stereo not shown) [Compound 741]	100%	100%
CCON=Cc1ccc(C[N+]2([O-])CCC(C(OC(=O)Nc3cccc(F)c3)c3ccc(C(F)(F)F)cc3)CC2)cc1 (stereo not shown) [Compound 742]	100%	100%
CCON=Cc1ccc(C[N+]2([O-])CCC(C(OC(=O)Nc3cc(F)cc(F)c3)c3ccc(C(F)(F)F)cc3)CC2)cc1 (stereo not shown) [Compound 743]	100%	100%
C#CCON=Cc1ccc(C[N+]2([O-])CCC(C(OC(=O)Nc3cc(F)cc(F)c3)c3ccc(C(F)(F)F)cc3)CC2)cc1 (stereo not shown) [Compound 744]	100%	100%
CC(C)OC(=O)c1ccc(C[N+]2([O-])CCC(C(OC(=O)Nc3ccc(Cl)cc3)c3ccc(C(F)(F)F)cc3)CC2)cc1 (stereo not shown) [Compound 745]	100%	100%
CC(C)OC(=O)Nc1ccc(C[N+]2([O-])CCC(C(OC(=O)Nc3cc(F)cc(F)c3)c3ccc(C(F)(F)F)cc3)CC2)cc1 (stereo not shown) [Compound 746]	100%	100%

Structure (SMILES)	Percent Mortality	Percent Growth Inhibition
O=C(Nc1ccc(Cl)cc1)OC(c1ccc(C(F)(F)F)cc1)C1CC[N+]([O-])(Cc2ccc(-c3ccccc3)cc2)CC1 (stereo not shown) [Compound 747]	100%	100%
O=C(Nc1cc(F)cc(F)c1)OC(c1ccc(C(F)(F)F)cc1)C1CC[N+]([O-])(Cc2ccc(-c3ccccc3)cc2)CC1 (stereo not shown) [Compound 748]	100%	100%
O=C(Nc1cc(F)cc(F)c1)OC(c1ccc(C(F)(F)F)cc1)C1CC[N+]([O-])(Cc2ccc(Oc3ccccc3)cc2)CC1 (stereo not shown) [Compound 749]	100%	100%
O=C(Nc1cc(F)cc(F)c1)OC(c1ccc(C(F)(F)F)cc1)C1CC[N+]([O-])(Cc2ccc(Oc3ccccc3F)cc2)CC1 (stereo not shown) [Compound 750]	100%	100%
O=C(Nc1cc(F)cc(F)c1)OC(c1ccc(C(F)(F)F)cc1)C1CC[N+]([O-])(Cc2ccc(Oc3c(F)cccc3F)cc2)CC1 (stereo not shown) [Compound 751]	100%	100%
O=C(Nc1cc(F)cc(F)c1)OC(c1ccc(F)cc1)C1CC[N+]([O-])(Cc2ccc(Oc3ccccn3)cc2)CC1 (stereo not shown) [Compound 752]	100%	100%
O=C(Nc1ccc(F)cc1F)OC(c1ccc(C(F)(F)F)cc1)C1CC[N+]([O-])(Cc2ccc(Oc3ccccn3)cc2)CC1 (stereo not shown) [Compound 753]	100%	100%
O=C(Nc1ccc(F)c(F)c1)OC(c1ccc(C(F)(F)F)cc1)C1CC[N+]([O-])(Cc2ccc(Oc3ccccn3)cc2)CC1 (stereo not shown) [Compound 754]	100%	100%
O=C(Nc1cc(F)cc(F)c1)OC(c1ccc(C(F)(F)F)cc1)C1CC[N+]([O-])(Cc2ccc(Oc3ncccc3Cl)cc2)CC1 (stereo not shown) [Compound 755]	100%	100%
O=C(Nc1cc(F)cc(F)c1)OC(c1ccc(C(F)(F)F)cc1)C1CC[N+]([O-])(Cc2ccc(Oc3ccc(Cl)cn3)cc2)CC1 (stereo not shown) [Compound 756]	100%	100%
O=C(Nc1cc(F)cc(F)c1)OC(c1ccc(C(F)(F)F)cc1)C1CC[N+]([O-])(Cc2ccc(Oc3cccc(Cl)n3)cc2)CC1 (stereo not shown) [Compound 757]	100%	100%
O=C(Nc1cc(F)cc(F)c1)OC(c1ccc(C(F)(F)F)cc1)C1CC[N+]([O-])(Cc2ccc(Oc3ncc(Cl)cc3Cl)cc2)CC1 (stereo not shown) [Compound 758]	100%	100%
O=C(Nc1cc(F)cc(F)c1)OC(c1ccc(C(F)(F)F)cc1)C1CC[N+]([O-])(Cc2ccc(Oc3ncccc3C(F)(F)F)cc2)CC1 (stereo not shown) [Compound 759]	100%	100%
O=C(Nc1cc(F)cc(F)c1)OC(c1ccc(C(F)(F)F)cc1)C1CC[N+]([O-])(Cc2ccc(Oc3cc(C(F)(F)F)ccn3)cc2)CC1 (stereo not shown) [Compound 760]	100%	100%
COC(=O)N(c1ccc(C[N+]2([O-])CCC(C(OC(=O)Nc3cc(F)cc(F)c3)c3ccc(C(F)(F)F)cc3)CC2)cc1)c1ccccn1 (stereo not shown) [Compound 761]	100%	100%
O=C(Nc1ccc(Cl)cc1)OC(c1ccc(C(F)(F)F)cc1)C1CC[N+]([O-])(Cc2ccc(Oc3ncccn3)cc2)CC1 (stereo not shown) [Compound 762]	100%	100%
O=C(Nc1ccc(F)cc1F)OC(c1ccc(C(F)(F)F)cc1)C1CC[N+]([O-])(Cc2ccc(Oc3ncccn3)cc2)CC1 (stereo not shown) [Compound 763]	100%	100%
O=C(Nc1ccc(F)c(F)c1)OC(c1ccc(C(F)(F)F)cc1)C1CC[N+]([O-])(Cc2ccc(Oc3ncccn3)cc2)CC1 (stereo not shown) [Compound 764]	100%	100%
O=C(Nc1cc(F)cc(F)c1)OC(c1ccc(C(F)(F)F)cc1)C1CC[N+]([O-])(Cc2ccc(Oc3ncccn3)cc2)CC1 (stereo not shown) [Compound 765]	100%	100%
O=C(Nc1ccc(Cl)cc1)OC(c1ccc(C(F)(F)F)cc1)C1CC[N+]([O-])(Cc2ccc(Oc3ccc(Cl)nn3)cc2)CC1 (stereo not shown) [Compound 767]	100%	100%
O=C(Nc1cc(F)cc(F)c1)OC(c1ccc(C(F)(F)F)cc1)C1CC[N+]([O-])(Cc2ccc(Oc3ccc(Cl)nn3)cc2)CC1 (stereo not shown) [Compound 768]	100%	100%
C=CCOC(c1ccc(C(F)(F)F)cc1)C1CCN(Cc2ccc(Oc3ccccn3)cc2)CC1 (stereo not shown) [Compound 769]	0%	13%
CC(C)OC(=O)OC(c1ccc(C(F)(F)F)cc1)C1CCN(Cc2ccc(Oc3ccccn3)cc2)CC1 (stereo not shown) [Compound 770]	0%	76%
